The text below walks through data of patent US7399775B2, “β-amyloid protein production/secretion inhibitor” (Daiichi Pharmaceutical Co., Ltd., priority 2001, dated 2008).

In general, melting point refers to the temperature of the solid-liquid transition. `O=C(CCC(c1cc(F)ccc1F)S(=O)(=O)c1ccc(Cl)cc1)N1CCCC1` (centres unmarked) [Example 201, 4-[(4-Chlorophenyl)sulfonyl]-4-(2,5-difluorophenyl)-1-(1-pyrrolildinyl)-1-butanone] had a melting point of 134 to 135 °C.

Compound `COC(=O)N1CCC(c2cc(F)ccc2F)(S(=O)(=O)c2ccc(Cl)cc2)CC1` [Example 267, Methyl 4-[(4-chlorophenyl)sulfonyl]-4-(2,5-difluorophenyl)-1-piperidinecarboxylate] showed a melting point of 123 to 126 °C.

`O=S(=O)(c1ccc(Cl)cc1)C(CCN1CCOCC1)c1cc(F)ccc1F` (centres unmarked) [Example 298, 4-[3-[(4-Chlorophenyl)sulfonyl]-3-(2,5-difluorophenyl)propyl]morpholine] showed a melting point of 149 to 151 °C.

`O=S(=O)(c1ccc(Cl)cc1)C(CCC1CCCCC1)c1cc(F)ccc1F` (centres unmarked) [Example 316, 2-[1-(4-Chlorophenylsulfonyl)-3-cyclohexylpropyl]-1,4-difluorobenzene] showed a melting point of 82 to 83 °C.

`O=S(=O)(c1ccc(Cl)cc1)C1(c2cc(F)ccc2F)CCCC1` [Example 30, 2-[1-[(4-Chlorophenyl)sulfonyl]cyclopentyl]-1,4-difluorobenzene] yielded a melting point of 153 to 155 °C.

The compound `O=S(=O)(c1ccc(Cl)cc1)C(c1ccc(CN2CCCCC2)cn1)c1cc(F)ccc1F` (centres unmarked) [Example 336, 2-[(4-Chlorophenylsulfonyl)-(2,5-difluorophenyl)methyl]-5-(piperidin-1-ylmethyl)pyridine] registered a melting point of 113 to 114 °C.

`CC(C)(C)OC(=O)N1CCC(c2cc(F)ccc2F)(S(=O)(=O)c2ccc(Cl)cc2)CC1` [Example 259, t-Butyl 4-[(4-chlorophenyl)sulfonyl]-4-(2,5-difluorophenyl)-1-piperidinecarboxylate]: the melting point was 101 to 106 °C.

Regarding `CN(C)CCC(c1ccncc1)S(=O)(=O)c1ccc(Cl)cc1` (centres unmarked) [Example 126, 3-(4-Chlorophenylsulfonyl)-N,N-dimethyl-3-(pyridin-4-yl)propylamine], the melting point was 91 to 92 °C.

The compound `O=S(=O)(c1ccc(Cl)cc1)C(C/C=C/CO)c1cc(F)ccc1F` (centres unmarked) [Example 248, (E)-5-[(4-Chlorophenyl)sulfonyl]-5-(2,5-difluorophenyl)-2-penten-1-ol] returned a melting point of 108 to 109 °C.

On to `O=S(=O)(c1ccc(Cl)cc1)C(c1cc(F)ccc1F)C(O)CCCCO` (centres unmarked) [Example 236, 6-[(4-Chlorophenyl)sulfonyl]-6-(2,5-difluorophenyl)-1,5-hexanediol], for which the melting point was 105 to 107 °C.

For the compound `O=S(=O)(c1ccc(Cl)cc1)C(Cc1ccccc1CO)c1cc(F)ccc1F` (centres unmarked) [Example 277, [2-[2-[(4-Chlorophenyl)sulfonyl]-2-(2,5-difluorophenyl)ethyl]phenyl]methanol], the melting point was 107 to 108 °C.

Compound `CC(CCO)C(c1cc(F)ccc1F)S(=O)(=O)c1ccc(Cl)cc1` (single isomer, unassigned) [Example 239, 4-(4-Chlorophenylsulfonyl)-4-(2,5-difluorophenyl)-3-methyl-1-butanol] showed a melting point of 65 to 67 °C.

`CN(C)C(=O)N1CCC(c2cc(F)ccc2F)(S(=O)(=O)c2ccc(Cl)cc2)CC1` [Example 268, N,N-dimethyl-4-[(4-chlorophenyl)sulfonyl]-4-(2,5-difluorophenyl)-1-piperidinecarboxamide] yielded a melting point of 143 to 146 °C.

In the case of `Cc1cccc(CCC(c2cc(F)ccc2F)S(=O)(=O)c2ccc(Cl)cc2)c1` (centres unmarked) [Example 306, 2-[1-(4-Chlorophenylsulfonyl)-3-(3-methylphenyl)propyl]-1,4-difluorobenzene], the melting point was in the range of 87 to 88 °C.

For `CCCCCCCC(c1cc(F)ccc1F)S(=O)(=O)c1ccc(Cl)cc1` (centres unmarked) [Example 324, 2-[1-(4-chlorophenylsulfonyl)octyl]-1,4-difluorobenzene], the melting point is 47 to 48 °C.

On to `CS(=O)(=O)N1CCC(c2cc(F)ccc2F)(S(=O)(=O)c2ccc(Cl)cc2)CC1` [Example 269, 4-[(4-Chlorophenyl)sulfonyl]-4-(2,5-difluorophenyl)-1-(methylsulfonyl)piperidine], for which the melting point lay in the range of 176 to 178 °C.

For `Cl.O=C(OCCC(c1cc(F)ccc1F)S(=O)(=O)c1ccc(Cl)cc1)N1CCN(Cc2ccccc2)CC1` (centres unmarked), the melting point fell in the range of 184 to 189 °C.

Consider `CS(=O)(=O)CCCCC(c1ccc(F)cc1)S(=O)(=O)c1ccc(Cl)cc1` (centres unmarked) [Example 55, 1-[1-[(4-Chlorophenyl)sulfonyl]-5-(methylsulfonyl)pentyl]-4-fluorobenzene], for which the melting point was 141 to 142.5 °C.

For the compound `CC(CCCO)C(c1cc(F)ccc1F)S(=O)(=O)c1ccc(Cl)cc1` (centres unmarked) [Example 40, 5-[(4-Chlorophenyl)sulfonyl]-5-(2,5-difluorophenyl)-4-methyl-1-pentanol], the melting point lay in the range of 67 to 69 °C.

`COC(=O)/C=C/c1ccc(C(c2cc(F)ccc2F)S(=O)(=O)c2ccc(Cl)cc2)nc1` (centres unmarked) [Example 332, Methyl 3-[6-[(4-chlorophenylsulfonyl)-(2,5-difluorophenyl)methyl]pyridin-3-yl]acrylate]: the melting point was 145 to 146 °C.

Turning to `O=S(=O)(Cc1ccc(C(c2cc(F)ccc2F)S(=O)(=O)c2ccc(Cl)cc2)nc1)c1ccc(Cl)cc1` (centres unmarked) [Example 328, 2-[(4-Chlorophenylsulfonyl)-(2,5-difluorophenyl)methyl]-5-[(4-chlorophenylsulfonyl)methyl]pyridine], the melting point was 186 to 187 °C.

`O=S(=O)(c1ccc(Cl)cc1)C(Cc1cccs1)c1cc(F)ccc1F` (centres unmarked) [Example 295, 2-[2-[(4-Chlorophenyl)sulfonyl]-2-(2,5-difluorophenyl)ethyl]thiophene]: the melting point was 127 to 130 °C.

Regarding `O=c1oc2ccccc2c(O)c1C(Sc1ccc(Cl)cc1)c1cc(F)ccc1F` (centres unmarked), the melting point was in the range of 146 to 147 °C.

Consider `O=C(OCCC(c1cc(F)ccc1F)S(=O)(=O)c1ccc(Cl)cc1)N1CCCC1` (centres unmarked) [Example 208, 3-[(4-Chlorophenyl)sulfonyl]-3-(2,5-difluorophenyl)propyl=1-pyrrolidinecarboxylate], for which the melting point lay in the range of 109 to 110 °C.

`Cl.O=S(=O)(c1ccc(Cl)cc1)C(CCCCN1CCCC1)c1cc(F)ccc1F` (centres unmarked): the melting point fell in the range of 167 to 170.5 °C.

As to `CS(=O)(=O)NCCCC(c1cc(F)ccc1F)S(=O)(=O)c1ccc(Cl)cc1` (centres unmarked) [Example 230, N-[4-[(4-Chlorophenyl)sulfonyl]-4-(2,5-difluorophenyl)butyl]methanesulfonamide], the melting point came out at 128 °C.

`O=S(=O)(c1ccc(Cl)cc1)C(CCc1ccc(Br)cc1)c1cc(F)ccc1F` (centres unmarked) [Example 311, 2-[3-(4-Bromophenyl)-1-(4-chlorophenylsulfonyl)propyl]-1,4-difluorobenzene] displayed a melting point of 122 to 124 °C.

Turning to `CCNC(=O)N1CCC(c2cc(F)ccc2F)(S(=O)(=O)c2ccc(Cl)cc2)CC1` [Example 272, N-ethyl-4-[(4-chlorophenyl)sulfonyl]-4-(2,5-difluorophenyl)-1-piperidinecarboxamide], the melting point fell in the range of 172 to 174 °C.

As to `O=S(=O)(c1ccc(Cl)cc1)C(Cc1ccc(F)cc1)c1cc(F)ccc1F` (centres unmarked) [Example 314, 2-[1-(4-Chlorophenylsulfonyl)-2-(4-fluorophenyl)ethyl]-1,4-difluorobenzene], the melting point was 151 to 153 °C.

As for `CCCCCC(c1cc(F)ccc1F)S(=O)(=O)c1ccc(Cl)cc1` (centres unmarked) [Example 322, 2-[1-(4-Chlorophenylsulfonyl)hexyl]-1,4-difluorobenzene], the melting point fell in the range of 68 to 69 °C.

Consider `Cc1ccccc1CCC(c1cc(F)ccc1F)S(=O)(=O)c1ccc(Cl)cc1` (centres unmarked) [Example 305, 2-[1-(4-Chlorophenylsulfonyl)-3-(2-methylphenyl)propyl]-1,4-difluorobenzene], for which the melting point was in the range of 105 to 106 °C.

In the case of `O=S(=O)(c1ccc(Cl)cc1)C(c1ccc[n+]([O-])c1)c1cc(F)ccc1F` (centres unmarked) [Example 339, 3-[(4-Chlorophenylsulfonyl)-(2,5-difluorophenyl)methyl]pyridin-N-oxide], the melting point was 183 to 184 °C.

With `O=S(=O)(c1ccc(Cl)cc1)C1(c2cc(F)ccc2F)CCSCC1` [Example 251, 4-[(4-Chlorophenyl)sulfonyl]-4-(2,5-difluorophenyl)tetrahydrothiopyran], the melting point fell in the range of 188 to 190 °C.

In the case of `O=C(O)CC(c1cc(F)ccc1F)S(=O)(=O)c1ccc(Cl)cc1` (centres unmarked) [Example 62, 3-[(4-Chlorophenyl)sulfonyl]-3-(2,5-difluorophenyl)propionic Acid], the melting point is 152 to 153 °C.

Compound `Fc1ccc(F)c(C(Sc2ccc(Cl)cc2)c2cc(Cl)ncc2Cl)c1` (centres unmarked) [Example 342, 2,5-Dichloro-4-[(4-chlorophenylthio)-(2,5-difluorophenyl)methyl]pyridine] returned a melting point of 128 to 129 °C.

As for `CCCC(O)C(c1cc(F)ccc1F)S(=O)(=O)c1ccc(Cl)cc1` (centres unmarked) [Example 11, 1-[(4-Chlorophenyl)sulfonyl]-1-(2,5-difluorophenyl)-2-pentanol], the melting point fell in the range of 76.5 to 78 °C.

Regarding `O=S(=O)(c1ccc(Cl)cc1)C1(c2cccnc2Cl)CCCCC1` [Example 109, 2-Chloro-3-[1-(4-chlorophenylsulfonyl)cyclohexyl]pyridine], the melting point is 129 to 131 °C.

Consider `CN1CCC(c2cc(F)ccc2F)(S(=O)(=O)c2ccc(Cl)cc2)CC1` [Example 261, 4-[(4-Chlorophenyl)sulfonyl]-4-(2,5-difluorophenyl)-1-methylpiperidine], for which the melting point fell in the range of 172 to 175 °C.

`CN(C)S(=O)(=O)N1CCC(c2cc(F)ccc2F)(S(=O)(=O)c2ccc(Cl)cc2)CC1` [Example 270, N,N-Dimethyl-4-[(4-chlorophenyl)sulfonyl]-4-(2,5-difluorophenyl)-1-piperidinesulfonamide] showed a melting point of 125 to 129 °C.

In turn, `COc1ccc(C(CCCCS(C)(=O)=O)S(=O)(=O)c2ccc(Cl)cc2)cc1` (centres unmarked) [Example 85, 1-[1-(4-Chlorophenylsulfonyl)-5-(methylsulfonyl)pentyl]-4-methoxybenzene] showed a melting point of 136 to 138 °C.

For `O=S(=O)(c1ccc(Cl)cc1)C(Cc1ccncc1)c1cc(F)ccc1F` (centres unmarked) [Example 220, 4-[2-[(4-Chlorophenyl)sulfonyl]-2-(2,5-difluorophenyl)ethyl]pyridine], the melting point turned out to be 129 °C.
